Assay results taken from ChEMBL document CHEMBL4177563, “The medicinal chemistry of Chikungunya virus” (Bioorg Med Chem, 2017).
Converted amounts (≈) assume the structure as drawn.

Legend:
[1] = test system: Chikungunya virus; experiment: Antiviral activity against Chikungunya virus infected in African green monkey Vero cells after 72 hrs by MTT dye-based assay; format: functional, organism-based
[2] = test system: Chikungunya virus; experiment: Antiviral activity against Chikungunya virus 899 infected in African green monkey Vero cells by MTS assay; format: functional, organism-based; settings: Chikungunya virus, 899, Vero
[3] = Cytotoxicity against African green monkey Vero cells assessed as reduction in cell viability after 18 hrs by […]; format: cell-based; settings: chlorocebus sabaeus
[4] = Selectivity index, ratio of CC50 for African green monkey Vero cells to EC50 for Chikungunya virus 899; format: toxicity; settings: read-out: Ratio CC50/EC50
[5] = Selectivity index, ratio of CC50 for African green monkey Vero cells to IC50 for Chikungunya virus MY/065/08/FN295485; format: toxicity; settings: read-out: Ratio IC50
[6] = test system: Chikungunya virus; experiment: Antiviral activity against Chikungunya virus MY/065/08/FN295485 infected in African green monkey Vero cells assessed as reduction in virus yield after 48 hrs by titration assay; format: functional, organism-based; settings: MY/065/08/FN295485, Vero
[7] = Selectivity index, ratio of CC50 for BHK cells to IC50 for Chikungunya virus LR2006 OPY1; format: toxicity; settings: hamster, read-out: Ratio CC50/IC50
[8] = test system: Chikungunya virus; experiment: Antiviral activity against Chikungunya virus LR2006 OPY1 infected in BHK cells measured at 14 hrs post infection by luciferase reporter gene assay; format: functional, organism-based
[9] = Cytotoxicity against BHK cells assessed as reduction in cell viability after 48 hrs in presence of ATP by Celltiter-Glo luminescent assay; format: cell-based, Mesocricetus auratus; settings: hamster
[10] = test system: Chikungunya virus; experiment: Antiviral activity against Chikungunya virus infected in African green monkey Vero cells; format: functional, organism-based
[11] = Cytotoxicity against African green monkey Vero cells assessed as reduction in cell viability measured on day 6 to 7 post infection by MTS dye-based microscopic analysis; settings: chlorocebus sabaeus
[12] = test system: Chikungunya virus; experiment: Antiviral activity against Chikungunya virus infected in African green monkey Vero cells assessed as inhibition of virus-induced cytopathogenic effect measured on day 6 to 7 post infection by MTS dye-based microscopic analysis; format: functional, organism-based; settings: 144 h
[13] = Binding affinity to Chikungunya virus […]

SMILES: O=c1cc(-c2ccc(O)c(O)c2)oc2cc(O)cc(O)c12 [LUTEOLIN]
- IC50 [1]: 22.5 to 127 µM

SMILES: O=c1ccnc(SCc2cc(=O)oc3cc(O)ccc23)[nH]1
- EC50 [2]: > 331 µM

SMILES: Cc1cnc(SCc2cc(=O)oc3cc(OCc4ccccc4)ccc23)[nH]c1=O
- EC50 [2]: > 246 µM

SMILES: O=c1cc(-c2ccc(O)cc2)oc2cc(O)cc(O)c12 [APIGENIN]
- IC50 [1]: 22.5 to 127 µM

SMILES: COc1cc(C2Oc3cc([C@H]4Oc5cc(O)cc(O)c5C(=O)[C@@H]4O)ccc3OC2CO)ccc1O (some centres undefined) [SILIBININ]
- IC50 [1]: 22.5 to 127 µM

SMILES: Cc1ccc(S(=O)(=O)Oc2ccc3c(CSC4=NCCC(=O)N4)cc(=O)oc3c2)cc1
- CC50 at 18 h [3]: 60.2 µM
- selectivity ratio [4]: 2.6
- EC50 [2]: 23.1 µM

SMILES: O=c1c(O)c(-c2ccc(O)c(O)c2)oc2cc(O)ccc12 [FISETIN]
- selectivity ratio [5]: 23
- IC50 [6]: 29.5 µM

SMILES: O=C1CCN=C(SCc2cc(=O)oc3cc(OS(=O)(=O)c4ccc(F)cc4)ccc23)N1
- CC50 at 18 h [3]: 111 µM
- EC50 [2]: 128 µM

SMILES: Cc1ccc(S(=O)(=O)Oc2ccc3c(CSc4nc5ccc(C)cc5c(=O)[nH]4)cc(=O)oc3c2)cc1
- CC50 at 18 h [3]: 114 µM
- selectivity ratio [4]: 4.3
- EC50 [2]: 26.4 µM

SMILES: Cc1cnc(SCc2cc(=O)oc3cc(O)ccc23)[nH]c1=O
- EC50 [2]: > 316 µM

SMILES: Cc1ccc2nc(SCc3cc(=O)oc4cc(OS(=O)(=O)c5ccc([N+](=O)[O-])cc5)ccc34)[nH]c(=O)c2c1
- EC50 [2]: > 199 µM

SMILES: CCSc1ccc2c(c1)N(CCCN1CCN(C)CC1)c1ccccc1S2 [THIETHYLPERAZINE]
- selectivity ratio [7]: 5.5
- IC50 [8]: 15 µM
- CC50 at 48 h [9]: 83.1 µM

SMILES: Cc1ccc2nc(SCc3cc(=O)oc4cc(OS(=O)(=O)c5ccc(F)cc5)ccc34)[nH]c(=O)c2c1
- CC50 at 18 h [3]: 86.4 µM
- EC50 [2]: 116 µM

SMILES: O=c1ccnc(SCc2cc(=O)oc3cc(OCc4ccccc4)ccc23)[nH]1
- EC50 [2]: > 255 µM

SMILES: C=C[C@H]1CN2CC[C@H]1C[C@H]2[C@H](O)c1ccnc2ccc(OC)cc12 [QUININE]
- IC50 [10]: 0.1 µg/mL (≈ 0.308 µM)

SMILES: Cc1ccc(COc2ccc3c(CSc4ncc(C)c(=O)[nH]4)cc(=O)oc3c2)cc1
- EC50 [2]: > 48 µM

SMILES: CC1CCCCCCCC(C)C(=O)O[C@H]2/C(=C/Cl)C=C3[C@]45OC6(c7ccccc7)O[C@H]([C@@H]4[C@@H]4O[C@]4(CO)C[C@@]32O)[C@@](O)([C@@H](O6)[C@H]5C)C(O)(COC(=O)c2ccccc2)C1 (some centres undefined)
- CC50 [11]: 10.5 µM
- EC50 [12]: 3.9 µM

SMILES: O=C1CCN=C(SCc2cc(=O)oc3cc(OS(=O)(=O)c4ccccc4)ccc23)N1
- EC50 [2]: 57.4 µM

SMILES: O=C1CCN=C(SCc2cc(=O)oc3cc(OS(=O)(=O)c4ccc([N+](=O)[O-])cc4)ccc23)N1
- EC50 [2]: > 205 µM

SMILES: O=C1C[C@@H](c2ccc(O)cc2)Oc2cc(O)cc(O)c21 [NARINGENIN]
- Ki [13]: 0.685 µM

SMILES: O=c1cc(CSc2nc3ccccc3c(=O)[nH]2)c2ccc(OS(=O)(=O)c3ccccc3[N+](=O)[O-])cc2o1
- CC50 at 18 h [3]: 144 µM
- selectivity ratio [4]: 8.8
- EC50 [2]: 17.2 µM

SMILES: O=c1cc(CSc2nc3ccccc3c(=O)[nH]2)c2ccc(OS(=O)(=O)c3ccc(F)cc3)cc2o1
- CC50 at 18 h [3]: 30 µM
- selectivity ratio [4]: 1.6
- EC50 [2]: 18.4 µM

SMILES: O=c1c(O)c(-c2ccc(O)c(O)c2)oc2cc(O)c(O)c(O)c12 [QUERCETAGETIN]
- selectivity ratio [5]: 16.3
- Ki [13]: 0.489 µM
- IC50 [6]: 25300 µM

SMILES: CC1CCCCCCCC(C)C(=O)O[C@H]2/C(=C/Cl)C=C3[C@]45OC6(c7ccccc7)O[C@H]([C@@H]4[C@@H]4O[C@]4(CO)C[C@@]32O)[C@@](O)([C@@H](O6)[C@H]5C)C(O)(COC(=O)c2ccccc2O)C1 (some centres undefined)
- CC50 [11]: 4.6 µM
- EC50 [12]: 1.9 µM

SMILES: OCCN1CCN(CCCN2c3ccccc3Sc3ccc(Cl)cc32)CC1 [PERPHENAZINE]
- selectivity ratio [7]: 6.2
- IC50 [8]: 25.1 µM
- CC50 at 48 h [9]: 155 µM
